Laboratory results: article PMC5441875 (eLife, 2017)
Values joined by “and” are separate entries in the source; they are usually repeats but may differ in a detail not shown here. Equal values may be shown once. Read-outs that look alike come from different tables or passages of the source.

What was measured:
[1] = test system: GluN1-P532PSAA/GluN2A receptors; test: Potentiation by the positive allosteric modulator GNE-6901, whole-cell patch-clamp; assay type: cell-based, rat
Procedure: (§1) Receptor functionality and light-sensitivity were assessed in patch-clamp recordings of lifted whole cells 24–72 hr post transfection. Positively transfected cells were visualized by GFP-fluorescence. […] The osmolarity was 270–290 mOsm. The cells were continuously perfused with a Ringer solution containing (in mM): 140 NaCl, 2.8 KCl, 1 CaCl2, 0.01 DTPA, 10 HEPES and five sucrose (pH 7.3 with NaOH). The osmolarity was 290 mOsm. DTPA was added to prevent tonic inhibition of NMDARs by ambient zinc ([Paoletti et al., 1997]). Currents were recorded using an Axopatch 200B amplifier and a Digidata 1550A interface (Molecular Devices), sampled at 10–20 kHz, and low-pass filtered at 2–5 kHz. The cells were voltage-clamped at −60 mV. pClamp 10.5 (Molecular Devices) was used to acquire the data. All recordings were performed at room temperature.
Agonists or other pharmacological substances were applied using a multi-barrel rapid solution exchanger system (RSC 200, Bio-Logic). […] The agonist deactivation kinetics were assessed by including the converse co-agonist to the control solution. […]
(§2) Computer-controlled light pulses during electrophysiological recordings were provided from sensitive high power LEDs (Prizmatix). […] The LED port was directly coupled via a microscope adaptor to the fluorescence port of an inverted DIAPHOT 300 Nikon microscope. […]

[2] = target: T1, WT GluN1/GluN2A receptors (Rattus norvegicus, UniProt P35439+Q00959); test: as above; assay type: cell-based; parameters: expressed in transfected cells; host or cells: HEK-293 cells (ATCC), PEI transfection, pcDNA3-based vectors
T1 sequence (Q00959 23-1464, other chains not shown): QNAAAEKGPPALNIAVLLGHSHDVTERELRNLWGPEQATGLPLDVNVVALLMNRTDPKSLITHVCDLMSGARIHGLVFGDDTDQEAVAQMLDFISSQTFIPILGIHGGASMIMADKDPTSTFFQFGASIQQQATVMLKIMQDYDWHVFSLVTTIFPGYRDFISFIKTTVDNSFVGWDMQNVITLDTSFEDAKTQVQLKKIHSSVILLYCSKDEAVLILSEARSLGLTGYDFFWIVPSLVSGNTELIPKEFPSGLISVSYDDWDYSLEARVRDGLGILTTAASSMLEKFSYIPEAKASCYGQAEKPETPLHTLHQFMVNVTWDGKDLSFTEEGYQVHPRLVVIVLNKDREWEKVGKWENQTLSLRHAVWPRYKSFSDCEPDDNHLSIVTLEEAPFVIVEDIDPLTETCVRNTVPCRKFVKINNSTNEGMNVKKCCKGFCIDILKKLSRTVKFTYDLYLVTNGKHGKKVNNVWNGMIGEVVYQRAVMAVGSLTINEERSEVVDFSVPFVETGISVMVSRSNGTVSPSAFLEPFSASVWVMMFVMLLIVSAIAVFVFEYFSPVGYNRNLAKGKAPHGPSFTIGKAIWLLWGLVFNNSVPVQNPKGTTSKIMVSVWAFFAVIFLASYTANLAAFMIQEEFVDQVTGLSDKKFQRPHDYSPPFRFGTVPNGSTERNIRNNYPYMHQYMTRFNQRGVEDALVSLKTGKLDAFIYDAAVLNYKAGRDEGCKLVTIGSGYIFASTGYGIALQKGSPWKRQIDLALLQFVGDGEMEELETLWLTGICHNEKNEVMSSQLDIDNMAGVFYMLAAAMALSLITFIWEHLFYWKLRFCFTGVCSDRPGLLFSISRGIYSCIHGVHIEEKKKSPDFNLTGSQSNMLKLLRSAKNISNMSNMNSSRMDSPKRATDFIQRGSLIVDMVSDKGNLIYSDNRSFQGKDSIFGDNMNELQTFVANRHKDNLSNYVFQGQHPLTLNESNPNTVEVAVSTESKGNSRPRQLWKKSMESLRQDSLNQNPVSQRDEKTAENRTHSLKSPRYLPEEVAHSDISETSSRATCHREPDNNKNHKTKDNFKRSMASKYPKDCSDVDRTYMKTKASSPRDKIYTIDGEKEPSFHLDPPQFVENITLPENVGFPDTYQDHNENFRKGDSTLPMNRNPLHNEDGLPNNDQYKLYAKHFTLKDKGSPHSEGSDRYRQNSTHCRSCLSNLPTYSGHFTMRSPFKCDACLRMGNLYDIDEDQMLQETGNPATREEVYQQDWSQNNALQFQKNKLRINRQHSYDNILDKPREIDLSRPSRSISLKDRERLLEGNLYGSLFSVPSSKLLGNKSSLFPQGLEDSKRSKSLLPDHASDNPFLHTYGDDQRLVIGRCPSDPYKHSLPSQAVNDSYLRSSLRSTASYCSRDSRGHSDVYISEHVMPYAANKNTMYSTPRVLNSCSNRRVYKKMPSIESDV
Procedure: as §1
(§3) Agonists or other pharmacological substances were applied using a multi-barrel rapid solution exchanger system (RSC 200, Bio-Logic). […] The agonist deactivation kinetics were assessed by including the converse co-agonist to the control solution. For Mg^2+-DRCs, the concentration of DTPA, which has orders of magnitude higher affinity for Zn^2+ than Mg^2+ ([Paoletti et al., 1997]), was reduced to 1 µM to avoid excessive Mg^2+ chelation, while maintaining depletion of ambient zinc (estimated in the few hundreds of nM). Accordingly, Mg^2+ concentrations reported in the Mg^2+-DRC were not corrected and correspond to the nominal concentrations of added Mg^2+. MK-801 was applied at 1 μM to assure full inhibition of WT NMDAR-mediated currents. The positive allosteric modulator (PAM) GNE-6901 (obtained from Genentech, South San Francisco, USA) was used at a final concentration of 30 μM ([Hackos et al., 2016]).
as §2

[3] = test system: GluN1-P532PSAA/GluN2A receptors; test: MK-801 open channel block kinetics, whole-cell patch-clamp; assay type: cell-based, rat
Procedure: as §1, §3
(§4) Computer-controlled light pulses during electrophysiological recordings were provided from sensitive high power LEDs (Prizmatix). The three following LEDs were used: Mic-LED-365 (UV, 200 mW), UHP-Mic-LED-460 (blue, 2W) and UHP-Mic-LED-520 (green, 900 mW). The LED port was directly coupled via a microscope adaptor to the fluorescence port of an inverted DIAPHOT 300 Nikon microscope. The output beams of the three Mic-LEDs were joined by a dichroic beam combiner module and the resulting light was applied to the center of the recording dish through a 10X objective (Leitz Wetzlar). The light intensity of all three LEDs was set to 100%, unless otherwise noted.
(§5) Current traces obtained in electrophysiological recordings were transferred to Igor Pro (version 6.3) or Clampfit (version 10.5) for display and analysis. The kinetics of photoinactivation and photopotentiation were obtained by fitting currents with a single exponential function as follows: Y = A*exp(-t/τ) + C, with A as the initial current amplitude, Tau (τ) the decay time constant, and C the steady-state level. The inhibition by MK-801 was also fit with a monoexponential function. […] Accordingly, and for comparative purposes, only single exponential fits were used when studying MK-801 inhibition. Agonist DRCs were fit with the following Hill equation: Irel = 1/(1 + (EC50 / [ago])^nH), with EC50 and the Hill coefficient (nH) as free parameters. For Mg^2+-DRCs the following equation was used: Irel = 100*(1-(a/(1+[IC50]/[Mg^2+)^nH,)), where a is the maximal current inhibition by Mg^2+. IC50, a, and the Hill coefficient (nH) were set as free parameters.

[4] = test system: GluN1-F654PSAA/GluN2A receptors; test: MK-801 open channel block (kinetics and extent), whole-cell patch-clamp; assay type: cell-based, rat
Procedure: as §1, §3, §4, §5

[5] = test system: GluN1-Y647PSAA/GluN2A receptors; test: as above; assay type: cell-based, rat; conditions: 1 µM MK-801, Y647PSAA mutant
Procedure: as §1, §3, §4, §5

[6] = target: T1, WT GluN1/GluN2A receptors; test: as above; assay type: cell-based; parameters: expressed in transfected cells; host or cells: HEK-293 cells (ATCC), PEI transfection, pcDNA3-based vectors; conditions: 1 µM MK-801, WT
Procedure: as §1, §3, §4, §5

[7] = test system: GluN1-F654PSAA/GluN2A receptors; test: Magnesium dose-response curves (Mg2+-DRCs), whole-cell patch-clamp; assay type: cell-based, rat; conditions: F654PSAA mutant
Procedure: as §1, §3, §4, §5

[8] = test system: GluN1-Y647PSAA/GluN2A receptors; test: as above; assay type: cell-based, rat; conditions: Y647PSAA mutant
Procedure: as §1, §3, §4, §5

[9] = target: T1, WT GluN1/GluN2A receptors; test: as above; assay type: cell-based; parameters: expressed in transfected cells; host or cells: HEK-293 cells (ATCC), PEI transfection, pcDNA3-based vectors
Procedure: as §1, §3, §2

[10] = UV/Vis spectra of the free PSAA photoisomers; assay type: physicochemical; conditions: isopropanol, 5 min irradiation at 460 nm
Procedure: The UV/Vis spectra of the free PSAA (100 μM) were measured using a UVIKON 922 spectrophotometer (Kontron Instruments) in 1 x 1 × 4 cm quartz cuvettes. The spectra were measured at two different conditions: (i) with PSAA in the extracellular (Ringer) solution to be as close as possible to the recording conditions, and (ii) in isopropanol to mimic a hydrophobic environment (since PSAA is buried in the protein) ([Ye et al., 2009]). To induce the different photoisomers, the dissolved PSAA was directly irradiated in the cuvette at 365 nm (30 mW), 460 nm (241 mW), and 525 nm (35 mW) using a Cool LED pE-4000 illumination system. The UV spectra of the pure trans-isomer were recorded upon storage in the dark.

[11] = target: GluN1-P532PSAA/GluN2A receptors; conditions: PSAA-mutant
Procedure: as §1, §3
Computer-controlled light pulses during electrophysiological recordings were provided from sensitive high power LEDs (Prizmatix).

[12] = test system: GluN1-P532PSAA/GluN2A receptors; conditions: PSAA-mutant; for τdeact,UV (example trace) / τdeact,BLUE (example trace): single example trace; for τdeact,BLUE (example trace): blue light
Procedure: as §1, §3, §4
The weighted deactivation time constants were calculated with: τw =( Af/(Af+As))*τf + (As /(Af + As))*τs.

[13] = test system: GluN1-P532PSAA/GluN2A receptors; test: UV-induced photoinhibition of currents in the presence of ligands (glycine concentrations, competitive antagonists, PAM); assay type: cell-based, rat
Procedure: as §1, §3, §4

[14] = 1 µM MK-801, F654PSAA mutant, UV
[15] = 1 µM MK-801, F654PSAA mutant, dark
[16] = blue light, read-out: IC50 BLUE
[17] = read-out: EC50,BLUE, blue light (460 nm)
[18] = read-out: EC50,DARK, dark, 100 μM of the respective co-agonist
[19] = read-out: EC50,UV, UV light (365 nm)

In the case of Cc1sc2nc(COc3ccc(F)cc3)cc(=O)n2c1[C@@H]1C[C@H]1CO [GNE-6901], the “mean fold-potentiation by PAM” value ([1]; GNE-6901 30 µM, PSAA mutant, cis and trans pooled) is reported as 0.9 ± 0.04 fold, the “effect of PAM application” value ([1]; GluN1-P532PSAA mutant receptors) is reported as “entirely unaffected” and the “mean fold-potentiation by PAM” value ([2]; GNE-6901 30 µM, WT) is reported as 2.3 ± 0.3 fold. The “fold potentiation (example trace)” value ([2]; GNE-6901 30 µM, WT, example trace) was 2.3 fold and the “effect of PAM application” value ([2]; WT receptors) was “strongly potentiated”.
With C[C@]12N[C@H](Cc3ccccc31)c1ccccc12 [MK-801] the “time constant of MK-801 inhibition τUV (example trace)” value ([3]; 1 µM MK-801, P532PSAA mutant, UV, example) was 3200 ms, the “single-exponential time constant of MK-801 inhibition τUV” value ([3]; 1 µM MK-801, P532PSAA mutant, UV, mean) was 1820 ± 290 ms and the “time constant of MK-801 inhibition τDARK (example trace)” value ([3]; 1 µM MK-801, P532PSAA mutant, dark, example) was 470 ms. For the same molecule, the “single-exponential time constant of MK-801 inhibition τDARK” value ([3]; 1 µM MK-801, P532PSAA mutant, dark, mean) was 940 ± 160 ms, the “fold slower MK-801 blocking kinetics” value ([3]; P532PSAA mutant in dark state vs WT) was ~ 1.3 fold and the “fold slower MK-801 inhibition rates” value ([3]; P532PSAA mutant under UV exposure) was ~ 2 fold. The “mean extent of block produced by MK-801, BlockUV” value (“mean extent … BlockUV” for short) [4, 14] was 97 ± 1%, the “time constant of MK-801 inhibition (example trace)” value [4, 14] was 1000 ms and the “single-exponential time constant of MK-801 inhibition τUV” value ([4]; 1 µM MK-801, F654PSAA mutant, UV, mean) was 730 ± 70 ms. The “mean extent of block produced by MK-801, BlockDARK” value (“mean extent … BlockDARK” below) [4, 15] was 90 ± 3%, the “time constant of MK-801 inhibition (example trace)” value [4, 15] was 3970 ms and the “single-exponential time constant of MK-801 inhibition τDARK” value ([4]; 1 µM MK-801, F654PSAA mutant, dark, mean) was 3070 ± 560 ms. The “degree of MK-801 block” value ([4]; F654PSAA receptors, across light conditions) was ≥ 90%, the “mean extent … BlockUV” value ([5]; UV) was 86 ± 3% and > 85% and the “time constant of MK-801 inhibition (example trace)” value ([5]; UV) was 3300 ms. For the same molecule, the “single-exponential time constant of MK-801 inhibition τUV” value ([5]; UV, mean) was 4150 ± 910 ms, the “mean extent … BlockDARK” value ([5]; dark (trans)) was 69 ± 5% and 69% and the “time constant of MK-801 inhibition (example trace)” value ([5]; dark) was 4400 ms. For the same molecule, the “single-exponential time constant of MK-801 inhibition τDARK” value ([5]; dark, mean) was 5070 ± 580 ms, the “mean extent … BlockUV” value ([6]; UV) was 98 ± 1% and the “time constant of MK-801 inhibition (example trace)” value ([6]; UV) was 700 ms. The “single-exponential time constant of MK-801 inhibition τUV” value ([6]; UV, mean) was 620 ± 50 ms, the “single-exponential time constant of MK-801 inhibition τBLUE” value ([6]; blue, mean) was 610 ± 90 ms and the “mean extent … BlockDARK” value ([6]; dark) was 97 ± 1%. For the same molecule, the “time constant of MK-801 inhibition (example trace)” value ([6]; dark) was 600 ms and the “single-exponential time constant of MK-801 inhibition τDARK” value ([6]; dark, mean) was 690 ± 140 ms.
[Mg+2] [Mg^2+] showed an IC50 ([7]; UV light, read-out: IC50 UV) of 33.3 µM, an IC50 [7, 16] of 34.3 µM and an IC50 ([7]; dark, read-out: IC50 DARK) of 30 µM. For the same molecule, the IC50 ([8]; UV light, read-out: IC50,UV) was 41.5 µM, the IC50 ([8]; blue light, read-out: IC50,BLUE) was 102 µM and the “fold increase in IC50 under dark or blue light” value ([8]; dark or blue vs UV) was 2.5 fold. For the same molecule, the IC50 ([8]; dark, read-out: IC50,DARK) was 103 µM, the IC50 ([9]; UV light, read-out: IC50 UV) was 35.8 µM and the IC50 [9, 16] was 32.6 µM. It also gave an IC50 ([9]; dark, nominal Mg2+ concentrations, read-out: IC50 DARK) of 34.6 µM.
For C=Cc1cccc(/N=N/c2ccc(C[C@H](N)C(=O)O)cc2)c1 [PSAA], the cis/trans ratio [10] was 74%.
N[C@@H](CCC(=O)O)C(=O)O [glutamate] showed an EC50 [11, 17] of 13.3 µM, an EC50 [11, 18] of 14.6 µM and an EC50 [11, 19] of 17.1 µM. The “τdeact,UV (example trace)” value ([12]; UV) was 77.7 ms, the “τdeact,BLUE (example trace)” value [12] was 79.2 ms and the “mean weighted deactivation time constant τdeact,DARK” value [12] was 113 ± 36 ms.
NCC(=O)O [glycine] showed an EC50 [11, 17] of 1.5 µM, an EC50 [11, 18] of 1.5 µM and an EC50 [11, 19] of 10.5 µM. For the same molecule, the “mean weighted deactivation time constant τdeact,UV” value ([12]; UV) was 81 ± 4 ms, the “τdeact,UV (example trace)” value ([12]; UV) was 75.4 ms and the “τdeact,BLUE (example trace)” value [12] was 131.3 ms. The “mean weighted deactivation time constant τdeact,DARK” value [12] was 111 ± 9 ms, the “mean photoinhibition degree Inh1” value ([13]; 1 μM glycine) was ~95% and the “mean photoinhibition degree Inh10” value ([13]; 10 μM glycine) was 76.1 ± 2%. The “mean photoinhibition degree Inh100” value ([13]; 100 μM glycine) was 49.9 ± 2.5% and the “mean photoinhibition degree Inh1000” value ([13]; 1000 μM glycine) was 33.5 ± 2%.
